Data: ChEMBL document CHEMBL1201862, “PubChem BioAssay data set” (2004)
Calls of active or inactive are those of the source.

Experiments:
[1] = inhibitors of HIV Env-driven cell fusion, dose response, cherry-pick (AID 652057); type: functional, cell-based
[2] = ZM109 Env clade C HIV-1 fusion inhibitors, dose response, HeLa effector, CEM target cells, luciferase, cherry-pick (AID 652058); type: functional, cell-based
[3] = CEM21 lymphoblast cell cytotoxicity, dose response, cytotoxicity control for viral fusion inhibitor project, CellTiter-Glo luminescence, cherry-picked (AID 652042); type: functional, cell-based;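 further: potency for signal decrease meaning cytotoxicity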
[4] = off-target signal loss in HeLa-CEM21 co-culture – HeLa F-luc CTL cells, cherry-picked, counter-screen for HIV-1 Env fusion inhibitor project, dose response (AID 652040); type: functional, cell-based;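 further: potency for signal decrease marking cytotoxic or nonspecific inhibition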
[5] = inhibitors of clade B AD8 Env fusion, dose response, cell-based, cherry-pick (AID 652062); type: functional;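 further: luciferase signal from cell-cell fusion driven by HIV-1 clade B AD8 Env; potency is for inhibitors of fusion seen as a drop in luminescence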
[6] = intracellular Trypanosoma cruzi inhibitors in host cells – cell-based, plate reader, cherry-pick samples, set 3, dose response (AID 651818); type: functional;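 further: compounds incubated with infected cells for about four days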
[7] = target: Ras and Rab interactor 1/Tyrosine-protein kinase ABL1 (Homo sapiens, UniProt P00519+Q13671); type: functional;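 further: biochemical TR-FRET dose-response test measuring inhibition of binding between Rin1 and Abl proteins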
Sequence of Ras and Rab interactor 1/Tyrosine-protein kinase ABL1 (P00519 whole entry): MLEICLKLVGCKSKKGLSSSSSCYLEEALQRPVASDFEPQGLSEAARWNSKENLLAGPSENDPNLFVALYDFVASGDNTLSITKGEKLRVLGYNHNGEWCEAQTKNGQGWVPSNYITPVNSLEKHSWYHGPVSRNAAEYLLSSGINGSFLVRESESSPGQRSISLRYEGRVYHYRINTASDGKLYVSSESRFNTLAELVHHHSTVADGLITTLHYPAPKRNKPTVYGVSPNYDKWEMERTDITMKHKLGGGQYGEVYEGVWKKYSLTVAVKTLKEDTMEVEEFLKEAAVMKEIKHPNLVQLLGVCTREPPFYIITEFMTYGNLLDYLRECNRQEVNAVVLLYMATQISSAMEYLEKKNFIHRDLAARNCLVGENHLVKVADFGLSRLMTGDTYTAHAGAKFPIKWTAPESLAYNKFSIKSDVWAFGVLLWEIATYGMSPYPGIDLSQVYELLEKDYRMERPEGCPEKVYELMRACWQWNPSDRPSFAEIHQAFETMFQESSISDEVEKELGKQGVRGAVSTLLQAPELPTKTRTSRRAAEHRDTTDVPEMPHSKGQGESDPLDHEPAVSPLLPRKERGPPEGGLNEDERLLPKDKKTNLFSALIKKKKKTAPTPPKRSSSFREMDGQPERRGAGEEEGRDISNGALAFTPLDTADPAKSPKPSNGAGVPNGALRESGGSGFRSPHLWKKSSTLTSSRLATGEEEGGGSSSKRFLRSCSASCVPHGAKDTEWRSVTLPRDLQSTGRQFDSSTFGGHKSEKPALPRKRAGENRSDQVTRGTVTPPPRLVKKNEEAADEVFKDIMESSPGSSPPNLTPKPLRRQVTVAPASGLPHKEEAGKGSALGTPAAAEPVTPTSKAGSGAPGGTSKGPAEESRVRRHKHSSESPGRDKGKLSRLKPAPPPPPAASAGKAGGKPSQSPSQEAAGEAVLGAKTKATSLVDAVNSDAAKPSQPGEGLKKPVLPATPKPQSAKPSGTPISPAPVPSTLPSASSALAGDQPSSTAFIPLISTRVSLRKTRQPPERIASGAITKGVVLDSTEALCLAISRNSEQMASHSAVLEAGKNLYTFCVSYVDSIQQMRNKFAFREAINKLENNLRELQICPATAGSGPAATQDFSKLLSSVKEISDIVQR
Sequence of Ras and Rab interactor 1/Tyrosine-protein kinase ABL1 (Q13671 whole entry): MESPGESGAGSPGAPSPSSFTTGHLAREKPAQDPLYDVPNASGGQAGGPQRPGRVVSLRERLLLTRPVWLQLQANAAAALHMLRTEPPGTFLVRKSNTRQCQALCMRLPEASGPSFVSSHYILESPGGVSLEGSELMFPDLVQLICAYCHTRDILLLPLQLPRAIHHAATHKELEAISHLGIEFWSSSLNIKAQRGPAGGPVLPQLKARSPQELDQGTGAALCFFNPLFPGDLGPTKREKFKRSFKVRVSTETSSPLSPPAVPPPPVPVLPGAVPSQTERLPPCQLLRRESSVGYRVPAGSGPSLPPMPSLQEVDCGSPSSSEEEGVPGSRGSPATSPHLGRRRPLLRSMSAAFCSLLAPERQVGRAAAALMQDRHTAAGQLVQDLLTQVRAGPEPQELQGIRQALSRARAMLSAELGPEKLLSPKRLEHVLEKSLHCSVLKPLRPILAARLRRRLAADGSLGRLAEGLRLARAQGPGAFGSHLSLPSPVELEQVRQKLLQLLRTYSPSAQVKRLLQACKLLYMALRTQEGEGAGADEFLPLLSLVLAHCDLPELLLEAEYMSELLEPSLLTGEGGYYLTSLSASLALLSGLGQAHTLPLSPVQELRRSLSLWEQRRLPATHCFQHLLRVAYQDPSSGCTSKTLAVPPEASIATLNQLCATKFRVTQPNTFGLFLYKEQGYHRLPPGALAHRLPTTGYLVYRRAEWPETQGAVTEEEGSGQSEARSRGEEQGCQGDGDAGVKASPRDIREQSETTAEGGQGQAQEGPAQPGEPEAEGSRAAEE

cells [8] = type: functional, cell-based
cells [9] = type: functional, cell-based; remark: listed apart in the source
Mu-type opioid receptor = Mu-type opioid receptor (Homo sapiens, UniProt P35372); type: functional, cell-based;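 further: U2OS cells with beta-arrestin recruitment to OPRM1 by beta-gal complementation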
Sequence of Mu-type opioid receptor (P35372 whole entry): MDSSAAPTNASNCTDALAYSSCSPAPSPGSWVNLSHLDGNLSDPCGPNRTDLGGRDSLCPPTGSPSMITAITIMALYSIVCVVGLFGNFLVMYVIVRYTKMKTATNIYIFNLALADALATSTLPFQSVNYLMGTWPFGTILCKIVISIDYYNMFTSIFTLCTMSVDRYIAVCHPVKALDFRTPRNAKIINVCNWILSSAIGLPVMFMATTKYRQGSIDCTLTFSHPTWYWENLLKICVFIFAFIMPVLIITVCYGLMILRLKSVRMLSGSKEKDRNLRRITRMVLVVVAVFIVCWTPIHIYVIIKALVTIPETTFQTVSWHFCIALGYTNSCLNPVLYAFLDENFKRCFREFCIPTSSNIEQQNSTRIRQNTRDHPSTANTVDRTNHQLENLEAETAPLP

[10] = target: 5-hydroxytryptamine receptor 2A (Mus musculus, UniProt P35363); type: functional, cell-based;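 further: CHO-K1 cells with tagged receptor and beta-arrestin; agonist potency measured as compound-induced activation of the receptor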
Sequence of 5-hydroxytryptamine receptor 2A (P35363 whole entry): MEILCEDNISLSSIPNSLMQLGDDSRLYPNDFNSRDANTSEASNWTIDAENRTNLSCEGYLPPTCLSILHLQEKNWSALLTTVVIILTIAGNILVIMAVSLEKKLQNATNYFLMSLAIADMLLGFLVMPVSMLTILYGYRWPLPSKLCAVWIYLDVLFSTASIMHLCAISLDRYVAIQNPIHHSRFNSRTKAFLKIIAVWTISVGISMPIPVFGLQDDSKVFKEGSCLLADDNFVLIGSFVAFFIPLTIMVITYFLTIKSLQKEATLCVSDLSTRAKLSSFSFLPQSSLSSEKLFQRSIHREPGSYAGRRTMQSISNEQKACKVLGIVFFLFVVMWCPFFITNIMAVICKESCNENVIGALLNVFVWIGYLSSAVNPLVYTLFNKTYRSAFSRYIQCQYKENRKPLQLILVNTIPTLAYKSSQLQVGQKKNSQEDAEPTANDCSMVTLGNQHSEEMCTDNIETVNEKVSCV

Beta-galactosidase = Beta-galactosidase (Escherichia coli, UniProt Q8VNN2); test: Dose response counterscreen for EBI2 assay utilizing the enzyme, b-galactosidase.; type: functional
Sequence of Beta-galactosidase (Q8VNN2 whole entry): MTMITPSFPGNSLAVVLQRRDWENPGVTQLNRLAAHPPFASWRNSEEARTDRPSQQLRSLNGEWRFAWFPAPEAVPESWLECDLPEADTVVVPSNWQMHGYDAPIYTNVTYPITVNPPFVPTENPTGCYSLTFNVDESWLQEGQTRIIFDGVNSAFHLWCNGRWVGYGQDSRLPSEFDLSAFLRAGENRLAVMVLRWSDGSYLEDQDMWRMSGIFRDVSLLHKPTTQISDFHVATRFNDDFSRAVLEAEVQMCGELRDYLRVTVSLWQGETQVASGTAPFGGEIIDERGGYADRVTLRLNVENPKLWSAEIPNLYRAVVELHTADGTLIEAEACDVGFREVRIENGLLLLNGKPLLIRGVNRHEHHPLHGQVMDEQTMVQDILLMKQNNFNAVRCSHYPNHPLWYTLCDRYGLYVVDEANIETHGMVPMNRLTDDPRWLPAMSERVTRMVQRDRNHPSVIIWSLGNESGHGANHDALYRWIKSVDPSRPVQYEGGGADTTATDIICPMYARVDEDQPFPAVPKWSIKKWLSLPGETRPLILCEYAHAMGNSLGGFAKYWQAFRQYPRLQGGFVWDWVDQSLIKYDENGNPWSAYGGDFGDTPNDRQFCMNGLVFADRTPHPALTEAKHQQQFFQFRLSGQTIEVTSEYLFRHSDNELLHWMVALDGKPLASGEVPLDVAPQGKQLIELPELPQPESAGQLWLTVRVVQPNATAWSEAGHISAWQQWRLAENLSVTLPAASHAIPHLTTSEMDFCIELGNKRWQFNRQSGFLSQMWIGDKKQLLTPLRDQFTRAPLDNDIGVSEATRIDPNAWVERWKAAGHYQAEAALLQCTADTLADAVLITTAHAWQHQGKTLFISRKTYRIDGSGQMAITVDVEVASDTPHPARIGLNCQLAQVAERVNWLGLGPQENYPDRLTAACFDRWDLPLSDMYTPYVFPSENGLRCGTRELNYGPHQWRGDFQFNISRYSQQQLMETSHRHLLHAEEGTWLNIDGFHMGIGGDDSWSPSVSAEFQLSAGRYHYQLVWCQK

INS1 = test: beta cell apoptosis inhibitors, cytokine rescue, dose response, luminescence, retest (AID 449756); type: functional, cell-based; conditions: Rattus norvegicus;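 further: cell death triggered by IL-1 beta plus TNF-alpha plus IFN-gamma mixture; protective hits raise ATP signal compared with cytokine alone wells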

With COc1ccc(C2c3c(-c4ccccc4O)n[nH]c3C(=O)N2CCc2ccc(OC)c(OC)c2)cc1 (stereo unspecified) the AC50 [1] was 1.94 µM (active), the AC50 [2] was 2.44 µM (active) and the AC50 [3] was 65.5 µM (active). The AC50 [4] was 3.07 µM (active) and the AC50 [5] was 1.17 µM (active).

With C[C@@H]1CN([C@@H](C)CO)C(=O)c2cccc(NC(=O)Nc3ccc4c(c3)OCO4)c2O[C@H]1CN(C)Cc1ccc(Oc2ccccc2)cc1 the AC50 [6] was 1.92 µM (active).

With O=C(Cc1ccc(NC(=O)C2CCN(C(=O)C3CCCC3)CC2)cc1)Nc1cccc(C(=O)N2CCCCC2)c1 the IC50 [7] was 29.2 µM (inactive).

For CCCN1CN(CCc2ccccc2)CN=C1S, the EC50 (cells [8]) was > 29.9 µM (inactive) and the IC50 (cells [9]) was > 29.9 µM (inactive).

For C[C@@H]1CN([C@H](C)CO)C(=O)Cc2cc(NS(=O)(=O)c3ccccc3)ccc2O[C@H]1CN(C)Cc1ccc(Cl)c(Cl)c1, the AC50 [6] was 3.13 µM (active).

With CCCN1CCO[C@@H]2c3cc(O)ccc3OC[C@H]21 the EC50 (Mu-type opioid receptor) was 92.5 µM (inactive) and the EC50 [10] was 0.0216 µM (active).

For O=C(c1cc2ccccc2o1)N1CCN(S(=O)(=O)/C=C/c2ccccc2)CC1, the IC50 (Beta-galactosidase) was > 80 µM (inactive).

For c1cnc(N2CCN(Cc3c[nH]c4ccccc34)CC2)nc1, the EC50 (Mu-type opioid receptor) was 92.5 µM (inactive), the AC50 (INS1) was 4.57 µM (active) and the EC50 [10] was 0.424 µM (active).
